Results taken from patent US10682442B2, “Small molecule drug release from in situ forming degradable scaffolds incorporating hydrogels and bioceramic microparticles” (University of Kentucky Research Foundation, priority 2014, dated 2020).
Values after ≈ are worked out from the molar mass of the structure shown.

Assays:
[1] = Drug loading into PBAE microparticles (loading efficiency, surface vs bulk drug); assay type: physicochemical; settings: pre-loaded; 100 mg/mL drug solution
Method: FIG. 6A graphically represents the processing method for creating PBAE microparticles, as well as the differences between pre- and post-loaded particles. […] This ratio allowed particles to swell without excess solution remaining, and expected drug loads were calculated under the assumption that all drug solution was imbibed by the microparticles. Particles were lyophilized overnight, briefly re-ground and sieved to break up aggregates, and stored in a vacuum chamber with desiccant. […] Drug-loaded PBAE slabs were ground with 75 wt % HA into particles and stored in a vacuum chamber with desiccant. Predicted values for drug loading using the pre-loading method were obtained by calculating swelling of PBAE in solution based on mass increase and assuming drug was homogeneously present in swollen hydrogels as well as surrounding solution. […] The mixtures containing ethanol and swollen PBAE microparticles were then centrifuged, and supernatants were analyzed using HPLC to detect simvastatin, as described below. Clodronate loading was measured with an identical technique using 50% ethanol, and was detected by absorbance as described below. […] Drug detected in the initial wash was deemed loosely bound to the surface of particles, while drug detected after the 24 hour soak was determined to be imbibed into the bulk of the particles.

[2] = In vitro drug release from in situ forming PLGA scaffolds in PBS (Example 1); assay type: physicochemical; settings: for burst release within one day: freely mixed
Method: PLGA was added to NMP and stirred overnight until fully dissolved to create a 20 wt/wt % PLGA solution. […] HA was also mixed homogeneously prior to injection to bring the final mixture to 30 wt % HA. Clodronate-loaded PBAE microparticles pre-loaded with 50 mg/mL clodronate were added using an identical technique. […] FIG. 6B illustrates the differences between the proposed system and a traditional injectable system. Simvastatin and clodronate were measured as described below.
The scaffold mixture was injected dropwise through a 16 gauge, blunt-tipped dispensing needle into PBS at 5% wt/vol. Upon contacting PBS, surface PLGA immediately began to precipitate, forming semi-spherical scaffolds approximately 3 mm in diameter that sank to the bottom of the vial. Samples were kept in an incubator at 37° C. on a plate shaker for the duration of the study. Supernatant was collected and replaced at each time point, and these samples were preserved at 4° C. until analysis. Clodronate release was measured for three loading conditions: freely mixed clodronate without HA filler, freely mixed clodronate with HA filler, and clodronate pre-loaded into PBAE microparticles with HA filler. Because PBAE microparticles were fabricated with HA as a dispersing agent, drug release from loaded particles was not investigated without HA filler. Simvastatin release was measured for three loading conditions: freely mixed simvastatin without HA filler, freely mixed simvastatin with HA filler, and simvastatin pre-loaded into PBAE microparticles with HA filler.
Clodronate from collected supernatants were measured using a Powerwave HT (Biotek; Winooski, Vt., USA). In vitro release supernatant was pipetted into a UV-grade 96-well plate (Greiner Bio-One, Frickenhausen, Germany), and baseline absorbance was measured at 240 nm.
Drug release from polymeric systems is often analyzed using an adaptation of the Higuchi model by Peppas et al., widely known as the power law, to characterize release kinetics (Siepmann J, Peppas N A. Modeling of drug release from delivery systems based on hydroxypropyl methylcellulose (HPMC). Advanced Drug Delivery Reviews 2001; 48:139-57):
[formula] represents Tractional release or drug at time t, k is a constant encompassing scaffold and drug properties, and it is the release exponent used to characterize drug release. In the case of the spherical geometry (consistent with scaffolds formed via dropwise injection), n=0.43 corresponds to pure Fickian diffusion, n=0.85 corresponds to pure case II (polymer relaxation-based) transport, and values in between are combinations of the two, termed anomalous transport (Siepmann J, Peppas N A. Modeling of drug release from delivery systems based on hydroxypropyl methylcellulose (HPMC). Advanced Drug Delivery Reviews 2001; 48:139-57). Plots of
[formula] so release data were truncated to below 60% cumulative release when calculating n. Mass Loss and Degradation

[3] = physchem

loading efficiency [1]: 59% | release rate ([2]; all loading conditions, day 20 through day 31): 3 %/day | release rate ([2]; freely mixed without HA, through day 19): 0.6 %/day | burst release within one day ([2]; with HA filler): 32% | burst release within one day ([2]; without HA): 49% | release rate ([2]; mixed with HA, through day 19): 1.3 %/day | release exponent n (power law) ([2]; pre-loaded drug, initial release during burst (first day)): 0.49 | 1 day burst release ([2]; pre-loaded into PBAE microparticles, with HA filler): 32% | release rate ([2]; pre-loaded into microparticles, through day 19): 1.3 %/day | solubility ([3]; aqueous with cosolvent or surfactant or cyclodextrin): 20 mg/mL (≈ 81.7 mM) | solubility ([3]; water): ≥ 100 mg/mL
Compound: O=P(O)(O)C(Cl)(Cl)P(=O)(O)O [clodronate]
